{"source": "patent US12048316B2", "about": "“Sweetener and flavor compositions, methods of making and methods of use thereof” (EPC Natural Products Co., Ltd., priority 2018, dated 2024)", "key": {"[1]": {"experiment": "HPLC/MS quantitative evaluation: degradation of reaction partners and formation of MRI at various pH-conditions", "format": "physicochemical", "conditions": "pH = 7.0", "procedure": "All samples were analyzed by HPLC/ISIS using following conditions.\nQuantitative evaluation was performed using external standardization."}, "[2]": {"conditions": "relative to sucrose (sugar, cane sugar); depends on the tested concentration; cited from earlier work"}, "[3]": {"experiment": "Assay to test DPPH radical-scavenging activity", "format": "biochemical", "conditions": "combinations of amino acids and Reb-A, 100° C.; less pronounced than glucose or xylose", "procedure": "1 mg 1,1-Diphenyl-2-picrylhydrazyl radical (DPPH)/ml ethanol, dilution to assay concentration were prepared in ethanol (40 μg/mL); Calibration samples were prepared with Ascorbic acid in a concentration of 0-10 μg/mL, as a negative control sample, water was used.\nSamples in aqueous solution were used as such or diluted with water.\nA 0.1 ml sample (or calibration standard) was mixed with 3.9 ml solution of DPPH (100 μMolar) and reacted while protected from light at room temperature for 30 min. Absorbance was determined at 517 nm against ethanol.\n10 mM of amino acid and/or 10 mM sugar were dissolved in 10 ml 0.1 mM KH2PO4-buffer, pH=7.8\nThe samples were kept at 100° C. in sealed glass vials (Pyrex 15 ml with screw caps) for 0 (before reaction), 2.5 or 5.0 hours. Thereafter the samples were transferred to an ice water bath and cooled down to room temperature. These samples were diluted 1:10 and used for the test assay for anti-oxidant potential."}}, "data": [{"smiles": "O=C[C@H](O)[C@@H](O)[C@H](O)[C@H](O)CO", "note": "[Glu, Glucose]", "values": [{"measurement": "% degradation", "setting": "[1]; reaction Phe + Gluc", "result": 4.6, "unit": "%"}]}, {"smiles": "OC[C@H]1O[C@H](O[C@]2(CCl)O[C@H](CCl)[C@@H](O)[C@@H]2O)[C@H](O)[C@@H](O)[C@H]1Cl", "note": "[sucralose]", "values": [{"measurement": "times sweeter than sucrose / sugar", "setting": "[2]", "result": "about 600 times"}]}, {"smiles": "O=C[C@H](O)[C@@H](O)[C@H](O)CO", "note": "[Xyl, xylose]", "values": [{"measurement": "% degradation", "setting": "[1]; reaction Phe + Xyl", "result": 6.3, "unit": "%"}]}, {"smiles": "C=C1C[C@@]23CC[C@H]4[C@@](C)(CCC[C@@]4(C)C(=O)O[C@@H]4O[C@H](CO)[C@@H](O)[C@H](O)[C@H]4O)[C@@H]2CC[C@]1(O[C@@H]1O[C@H](CO)[C@@H](O)[C@H](O[C@@H]2O[C@H](CO)[C@@H](O)[C@H](O)[C@H]2O)[C@H]1O[C@@H]1O[C@H](CO)[C@@H](O)[C@H](O)[C@H]1O)C3", "note": "[Reb-A, Rebaudioside A]", "values": [{"measurement": "anti-oxidant properties (iron-III reduction, radical scavenging)", "setting": "[3]", "result": "substantial anti-oxidant properties"}]}, {"smiles": "C=C1C[C@@]23CC[C@H]4[C@@](C)(CCC[C@@]4(C)C(=O)O[C@@H]4O[C@H](CO)[C@@H](O)[C@H](O)[C@H]4O)[C@@H]2CC[C@]1(O[C@@H]1O[C@H](CO)[C@@H](O)[C@H](O)[C@H]1O)C3", "note": "[Rubusoside]", "values": [{"measurement": "times sweeter than sucrose / sugar", "setting": "[2]", "result": 200, "unit": "times"}]}, {"smiles": "O=S(=O)([O-])NC1CCCCC1.[Na+]", "note": "[sodium cyclamate]", "values": [{"measurement": "times sweeter than sucrose / sugar", "setting": "[2]", "result": "about 30 times"}]}]}
